Test results as given in ChEMBL document CHEMBL4393659, “Insights into the chemistry and therapeutic potential of furanones: A versatile pharmacophore” (Eur J Med Chem, 2019).
≈ marks a conversion by molar mass, not a printed value.

Experiments:
Globisporangium ultimum [1] = test: Antifungal activity against Pythium ultimum assessed as reduction in fungal cell growth incubated for 48 hrs by broth dilution method; type: functional
[2] = target: Cyclin-dependent kinase 5/CDK5 activator 1 (Homo sapiens, UniProt Q00535); test: Inhibition of CDK5/p25 (unknown origin); type: protein-complex assay
Sequence of Cyclin-dependent kinase 5/CDK5 activator 1 (Q00535 whole entry): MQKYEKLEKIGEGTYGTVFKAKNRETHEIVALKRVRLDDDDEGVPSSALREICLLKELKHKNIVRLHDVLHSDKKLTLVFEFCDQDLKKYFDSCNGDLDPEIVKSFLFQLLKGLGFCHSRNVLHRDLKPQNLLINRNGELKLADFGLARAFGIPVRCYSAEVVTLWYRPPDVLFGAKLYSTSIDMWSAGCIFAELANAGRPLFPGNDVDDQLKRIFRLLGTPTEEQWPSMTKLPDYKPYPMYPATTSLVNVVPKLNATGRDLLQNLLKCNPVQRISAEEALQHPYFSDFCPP
Sequence of Cyclin-dependent kinase 5/CDK5 activator 1 (Q15078 whole entry, further chain): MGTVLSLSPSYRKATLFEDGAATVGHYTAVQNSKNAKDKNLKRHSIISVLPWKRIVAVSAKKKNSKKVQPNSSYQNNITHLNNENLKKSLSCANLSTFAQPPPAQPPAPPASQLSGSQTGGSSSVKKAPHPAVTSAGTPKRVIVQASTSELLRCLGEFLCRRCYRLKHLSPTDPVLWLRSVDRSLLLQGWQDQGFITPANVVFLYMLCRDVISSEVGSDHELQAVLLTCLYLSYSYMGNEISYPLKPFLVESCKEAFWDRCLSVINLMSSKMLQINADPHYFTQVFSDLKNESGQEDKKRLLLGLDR

[3] = target: Glycogen synthase kinase-3 (Homo sapiens, UniProt P49840+P49841); test: Inhibition of GSK3alpha/beta (unknown origin); type: protein assay
[4] = target: Cyclin-dependent kinase 1/cyclin B1 (Homo sapiens, UniProt P06493); test: Inhibition of CDK1/cyclinB (unknown origin); type: protein-complex assay
Sequence of Cyclin-dependent kinase 1/cyclin B1 (P06493 whole entry): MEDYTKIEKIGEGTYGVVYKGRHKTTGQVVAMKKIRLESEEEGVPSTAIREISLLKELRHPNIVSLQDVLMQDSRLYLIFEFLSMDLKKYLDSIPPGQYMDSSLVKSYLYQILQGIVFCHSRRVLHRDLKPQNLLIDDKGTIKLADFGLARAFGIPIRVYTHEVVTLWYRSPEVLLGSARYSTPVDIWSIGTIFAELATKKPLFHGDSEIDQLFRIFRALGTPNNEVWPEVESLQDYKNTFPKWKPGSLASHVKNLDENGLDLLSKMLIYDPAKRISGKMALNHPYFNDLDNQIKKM
Sequence of Cyclin-dependent kinase 1/cyclin B1 (P14635 whole entry, further chain): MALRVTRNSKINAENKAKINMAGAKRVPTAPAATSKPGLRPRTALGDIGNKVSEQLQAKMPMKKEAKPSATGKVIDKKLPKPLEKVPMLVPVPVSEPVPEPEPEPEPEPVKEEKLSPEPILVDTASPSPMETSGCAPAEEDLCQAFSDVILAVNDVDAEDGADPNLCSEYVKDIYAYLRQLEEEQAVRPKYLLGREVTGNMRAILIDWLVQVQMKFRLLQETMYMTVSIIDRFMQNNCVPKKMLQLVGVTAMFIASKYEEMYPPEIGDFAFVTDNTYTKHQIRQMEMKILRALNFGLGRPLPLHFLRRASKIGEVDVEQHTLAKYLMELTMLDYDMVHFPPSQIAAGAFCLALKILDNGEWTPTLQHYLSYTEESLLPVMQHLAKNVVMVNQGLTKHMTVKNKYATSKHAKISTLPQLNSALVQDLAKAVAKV

Rattus norvegicus [5] = test: Antiinflammatory activity in Wistar rat assessed as inhibition of carrageenan-induced edema measured upto 4 hrs; type: functional
[6] = Ulcerogenicity in Wistar rat assessed as gastric lesions; type: toxicity; conditions: in vivo
Phospholipase A2 = Phospholipase A2 (Apis mellifera, UniProt P00630); test: Inhibition of bee venom phospholipase A2
Sequence of Phospholipase A2 (P00630 whole entry): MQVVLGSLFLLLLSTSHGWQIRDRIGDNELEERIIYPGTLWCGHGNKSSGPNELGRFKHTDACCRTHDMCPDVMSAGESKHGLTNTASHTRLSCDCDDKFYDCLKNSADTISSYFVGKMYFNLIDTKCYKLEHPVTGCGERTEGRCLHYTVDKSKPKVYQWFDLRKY

CYP3A4 = test: Inhibition of CYP3A4 in Sprague-Dawley rat liver microsome assessed as remaining activity by measuring 1'-hydroxylation of midazolam at 3 x 10^-5 M after 20 mins; type: ADME; conditions: liver microsomes, probe midazolam (1'-hydroxylation), read-out: INH
Berkeleyomyces basicola = test: Antifungal activity against Thielaviopsis basicola assessed as reduction in fungal spore germination measured between 4 to 24 hrs by inverted microscopy; type: functional; conditions: read-out: ED50 (the source's name)
Fusarium oxysporum = test: Antifungal activity against Fusarium oxysporum assessed as reduction in fungal spore germination measured between 4 to 24 hrs by inverted microscopy; type: functional; conditions: read-out: ED50 (the source's name)
Rhizoctonia solani = test: Antifungal activity against Rhizoctonia solani assessed as reduction in fungal germ tube growth measured between 4 to 24 hrs by inverted microscopy; type: functional; conditions: read-out: ED50 (the source's name)
Globisporangium ultimum [7] = test: Antifungal activity against Pythium ultimum assessed as reduction in fungal spore germination measured between 4 to 24 hrs by inverted microscopy; type: functional; conditions: read-out: ED50 (the source's name)
Fusarium solani = test: Antifungal activity against Fusarium solani assessed as reduction in fungal spore germination measured between 4 to 24 hrs by inverted microscopy; type: functional; conditions: read-out: ED50 (the source's name)
Diaphania hyalinata = test: Insecticidal activity against Diaphania hyalinata assessed as reduction in living insects observed after 48 hrs; type: functional
Escherichia coli = test: Inhibition of swarming motility of Escherichia coli at 13 ug/cm2; type: functional
Bacillus subtilis [8] = test: Antibiofilm activity in Bacillus subtilis assessed as reduction in biofilm thickness at 40 ug/ml incubated for 3 days by confocal microscopy; type: functional; set-up: scale not given: the % may be the effect or the level left
Bacillus subtilis [9] = test: Antibacterial activity against Bacillus subtilis assessed as cell viability at 40 ug/ml incubated for 3 days by confocal microscopy; type: functional
A549 [10] = test: Antitumor activity against human A549 cells assessed as inhibition of cell viability at 50 uM by MTT assay; type: functional
A549 [11] = test: Antitumor activity against human A549 cells assessed as inhibition of cell viability at 100 uM by MTT assay; type: functional
Rattus norvegicus [12] = test: Antiinflammatory activity in rat assessed as inhibition of carrageenan-induced paw edema at 20 mg/kg , po incubated for 30 mins followed by carrageenan treatment further incubated for 3 hrs by plethysmometer relative to ibuprofen; type: functional
Mus musculus = test: Antiinflammatory activity in carrageenan-induced C57Bl/6 mouse model of inflammation assessed as inhibition of PGE2 accumulation in air pouch at 0.1 to 10 mg/kg , po pretreated with carrageenan for 20 hrs and followed by compound administration and measured after 4 hrs; type: functional; conditions: C57B1/6, po
[13] = target: Prostaglandin G/H synthase 2 (Oryctolagus cuniculus, UniProt O02768); test: Inhibition of COX2 in rabbit whole blood assessed as reduction of LPS-induced PGE2 accumulation at 10 to 10000 nM preincubated with LPS followed by compound addition and incubated for 6 or 24 hrs by EIA method; type: tissue-based
Sequence of Prostaglandin G/H synthase 2 (Oryctolagus cuniculus, UniProt O02768) (O02768 whole entry): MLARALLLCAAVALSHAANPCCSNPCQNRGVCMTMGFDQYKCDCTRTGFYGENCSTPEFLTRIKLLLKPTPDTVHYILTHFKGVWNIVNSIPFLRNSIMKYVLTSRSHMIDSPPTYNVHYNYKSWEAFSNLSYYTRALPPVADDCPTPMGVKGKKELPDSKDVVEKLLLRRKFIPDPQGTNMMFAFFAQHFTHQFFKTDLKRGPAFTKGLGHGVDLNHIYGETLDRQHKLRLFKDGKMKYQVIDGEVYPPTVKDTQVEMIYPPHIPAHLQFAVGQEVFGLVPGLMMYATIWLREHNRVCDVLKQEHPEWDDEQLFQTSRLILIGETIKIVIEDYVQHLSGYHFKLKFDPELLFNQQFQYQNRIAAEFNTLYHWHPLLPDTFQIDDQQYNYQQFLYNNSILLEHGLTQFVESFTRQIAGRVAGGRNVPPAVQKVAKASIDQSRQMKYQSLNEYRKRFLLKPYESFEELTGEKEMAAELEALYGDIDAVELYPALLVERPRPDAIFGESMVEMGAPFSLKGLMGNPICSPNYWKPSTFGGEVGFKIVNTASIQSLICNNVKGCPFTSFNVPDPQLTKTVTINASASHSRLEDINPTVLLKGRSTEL

[14] = target: Prostaglandin G/H synthase 2 (Cavia porcellus, UniProt P70682); test: Inhibition of COX2 in guinea pig blood assessed as reduction of LPS-induced PGE2 accumulation at 10 to 10000 nM preincubated with LPS followed by compound addition and incubated for 6 or 24 hrs by EIA method; type: tissue-based
Sequence of Prostaglandin G/H synthase 2 (Cavia porcellus, UniProt P70682) (P70682 whole entry): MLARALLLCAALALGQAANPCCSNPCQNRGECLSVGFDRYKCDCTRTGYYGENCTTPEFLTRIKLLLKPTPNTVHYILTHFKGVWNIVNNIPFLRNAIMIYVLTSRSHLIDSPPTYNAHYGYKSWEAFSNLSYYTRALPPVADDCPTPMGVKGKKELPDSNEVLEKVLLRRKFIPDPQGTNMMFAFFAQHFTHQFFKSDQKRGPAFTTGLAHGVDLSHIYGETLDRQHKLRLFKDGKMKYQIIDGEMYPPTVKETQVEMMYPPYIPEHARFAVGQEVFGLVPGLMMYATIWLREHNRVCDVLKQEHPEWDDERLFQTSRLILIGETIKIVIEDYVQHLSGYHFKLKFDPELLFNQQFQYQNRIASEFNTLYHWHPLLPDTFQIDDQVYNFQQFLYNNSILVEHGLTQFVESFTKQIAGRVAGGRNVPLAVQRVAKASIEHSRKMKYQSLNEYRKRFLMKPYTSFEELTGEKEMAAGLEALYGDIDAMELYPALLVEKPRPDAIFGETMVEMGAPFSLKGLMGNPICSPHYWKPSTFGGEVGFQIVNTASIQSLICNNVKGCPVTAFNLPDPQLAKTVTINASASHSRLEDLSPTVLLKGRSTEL

[15] = Ulcerogenicity in Wistar rat assessed as gastric lesions by measuring ulcer severity index at 60 mg/kg , po measured after 17 hrs relative to control; type: toxicity, organism-based; conditions: in vivo

`Cc1cc(O)c2c(c1)C(c1c(O)cccc1O)OC2=O` (centres undefined) gave an MIC (Globisporangium ultimum [1]) of 40 µg/mL (≈ 147 µM).
`COc1ccc(C2OC(=O)C(O)=C2I)cc1OC` (centres undefined) gave an IC50 [2] of 10 µM, an IC50 [3] of 10 µM and an IC50 [4] of 10 µM.
In the case of `O=C1OC(c2ccc3ccccc3c2)=C/C1=C\c1cc2ccc([N+](=O)[O-])cc2nc1Cl`, the “inhibition (INH)” value (Rattus norvegicus [5]) is reported as 56 - 63% and the UI [6] is reported as 0.3.
`O=C1OC(O)C(/C=C/c2ccccc2)=C1F` (centres undefined) showed an IC50 (Phospholipase A2) of 3 µM.
For `COC(=O)C1=C(C)OC(C)(C)C1=O`, the activity at 20 min, 30 µM (CYP3A4) was 57.1%.
For `CCCC/C=C\C1=CC(C)OC1=O` (centres undefined), the EC50 (Berkeleyomyces basicola) was 25 µg/mL (≈ 139 µM), the EC50 (Fusarium oxysporum) was 56 µg/mL (≈ 311 µM) and the EC50 (Rhizoctonia solani) was 61 µg/mL (≈ 338 µM). It also gave an EC50 (Globisporangium ultimum [7]) of 45 µg/mL (≈ 250 µM) and an EC50 (Fusarium solani) of 54 µg/mL (≈ 300 µM).
In the case of `CC(C)O[C@@H]1OC(=O)[C@@H]2[C@H]1[C@@H]1C=C[C@H]2C1`, the LD50 (Diaphania hyalinata) is reported as 44.51 µM/g.
In the case of `CCCCC1=C(Br)/C(=C/Br)OC1=O`, the “inhibition (INH)” value (Escherichia coli) is reported as 100%, the Activity (Bacillus subtilis [8]) is reported as 25% and the Activity (Bacillus subtilis [9]) is reported as 63%.
For `CC[C@H](C)[C@H](NC1=C(Br)C(=O)O[C@@H]1OC)C(=O)OC`, the inhibition at 50 µM (A549 [10]) was 82.7% and the inhibition at 100 µM (A549 [11]) was 97.2%.
`CC(C)Cc1ccc(C2=C/C(=C\c3ccc(Cl)cc3Cl)C(=O)O2)cc1` gave an inhibition in vivo at 20 mg/kg (Rattus norvegicus [12]) of 66.1%.
`CS(=O)(=O)c1ccc(C2=C(c3ccc(F)c(F)c3)C(=O)OC2)cc1` gave an ED50 (Mus musculus) of 0.5 mg/kg, an IC50 [13] of 2800 nM and an IC50 [14] of 600 nM.
In the case of `CC(C)Cc1ccc(C(C)C(=O)O)cc1` (centres undefined) [IBUPROFEN], the UI [15] is reported as 0.9.
